According to patent US7348425B2, “Inhibitors of HCV replication” (Bristol-Myers Squibb Company, priority 2004, dated 2008):

What was measured:
[1] = system: HCV replicon; assay: HCV replicon FRET assay; assay type: cell-based; details: Hepatitis C virus; FRET assay; read-out: EC50
Experimental: The IC50 values for compounds were determined using seven different [I]. IC50 values were calculated from the inhibition using the formula y=A+((B−A)/(1+((C/x)^D))). FRET Assay Preparation. To perform the HCV FRET screening assay, 96-well cell culture plates were used. The FRET peptide (Anaspec, Inc.) (Taliani et al., Anal. Biochem. 240:60-67 (1996), hereby incorporated by reference in its entirety) contains a fluorescence donor, EDANS, near one end of the peptide and an acceptor, DABCYL, near the other end. The fluorescence of the peptide is quenched by […] resonance energy transfer (RET) between the donor and the acceptor, but as the NS3 protease cleaves the peptide the products are released from RET quenching and the fluorescence of the donor becomes apparent. The assay reagent was made as follows: 5× cell Luciferase cell culture lysis reagent from Promega (#E153A) diluted to 1× with dH2O, NaCl added to 150 mM final, the FRET peptide diluted to 20 uM final from a 2 mM stock.
To prepare plates, HCV replicon cells, with or without a Renilla luciferase reporter gene, were trypsinized and placed into each well of a 96-well plate with titrated test compounds added in columns 3 through 12; columns 1 and 2 contained a control compound (HCV protease inhibitor), and the bottom row contained cells without compound. The plates were then placed in a CO2 incubator at 37 degrees C.
Assays. Subsequent to addition of the test compounds described above (FRET Assay Preparation), at various times the plate was removed and Alamar blue solution (Trek Diagnostics, #00-100) was added per well as a measure of cellular toxicity. After reading in a Cytoflour 4000 instrument (PE Biosystems), plates were rinsed with PBS and then used for FRET assay by the addition of 30 ul of the FRET peptide assay reagent described above (FRET Assay Preparation) per well. The plate was then placed into the Cytoflour 4000 instrument which had been set to 340 excite/490 emission, automatic mode for 20 cycles and the plate read in a kinetic mode. Typically, the signal to noise using an endpoint analysis after the reads was at least three-fold. Alternatively, after Alamar blue reading, plates were rinsed with PBS, 50 ul of DMEM (high glucose) without phenol red was added and plates were then used for luciferase assay using the Promega Dual-Glo Luciferase Assay System.
Compound analysis was determined by quantification of the relative HCV replicon inhibition and the relative cytotoxicity values. To calculate cytoxicity values, the average Alamar Blue fluorescence signals from the control wells were set as 100% non-toxic. The individual signals in each of the compound test wells were then divided by the average control signal and multiplied by 100% to determine […]. To calculate the HCV replicon inhibition values, an average background value was obtained from the two wells containing the highest amount of HCV protease inhibitor at the end of the assay period. These numbers were similar to those obtained from naïve Huh-7 cells.
The background numbers were then subtracted from the average signal obtained from the control wells and this number was used as 100% activity. The individual signals in each of the compound test wells were then divided by the averaged control values after background subtraction and multiplied by 100% to determine percent activity. EC50 values for a protease inhibitor titration were calculated as the concentration which caused a 50% reduction in FRET or luciferase activity. The two numbers generated for the compound plate, percent cytoxicity and percent activity were used to determine compounds of interest for further analysis.

[2] = target: T1, HCV NS5B RdRp genotype 1b (Hepatitis C virus genotype 1b, UniProt Q9WMX2); assay: Modified HCV NS5B RdRp enzyme assay (with preincubation); assay type: biochemical
T1 construct: The protein was expressed with an 18 amino acid C-terminal truncation to enhance the solubility; made in house; host or cells: E. coli BL21 (DE3), pET21a
Experimental: HCVNS5B RdRp cloning, expression, and purification. The cDNA encoding the NS5B protein of HCV, genotype 1b, was cloned into the pET21a expression vector. The protein was expressed with an 18 amino acid C-terminal truncation to enhance the solubility. The E. coli competent cell line BL21 (DE3) was used for expression of the protein. Cultures were grown at 37° C. for ˜4 hours until the cultures reached an optical density of 2.0 at 600 nm. The cultures were cooled to 20° C. and induced with 1 mM IPTG. Fresh ampicillin was added to a final concentration of 50 μg/ml and the cells were grown overnight at 20° C.
Cell pellets (3 L) were lysed for purification to yield 15-24 mgs of purified NS5B. The lysis buffer consisted of 20 mM Tris-HCl, pH 7.4, 500 mM NaCl, 0.5% triton X-100, 1 mM DTT, 1 mM EDTA, 20% glycerol, 0.5 mg/ml lysozyme, 10 mM MgCl2, 15 ug/ml deoxyribonuclease I, and Complete TM protease inhibitor tablets (Roche). After addition of the lysis buffer, frozen cell pellets were resuspended using a tissue homogenizer. To reduce the viscosity of the sample, aliquots of the lysate were sonicated on ice using a microtip attached to a Branson sonicator. The sonicated lysate was centrifuged at 100,000×g for 1 hr at 4° C. and filtered through a 0.2 μm filter unit (Corning).
The protein was purified using three sequential chromatography steps: Heparin sepharose CL-6B, polyU sepharose 4B, and Hitrap SP sepharose (Pharmacia). The chromatography buffers were identical to the lysis buffer but contained no lysozyme, deoxyribonuclease I, MgCl2 or protease inhibitor and the NaCl concentration of the buffer was adjusted according to the requirements for charging the protein onto the column. Each column was eluted with a NaCl gradient which varied in length from 5-50 column volumes depending on the column type. After the final chromatography step, the resulting purity of the enzyme is >90% based on SDS-PAGE analysis. The enzyme was aliquoted and stored at −80° C.
Standard HCV NS5B RdRp enzyme assay. HCV RdRp genotype Ib assays were run in a final volume of 60 μl in 96 well plates (Costar 3912). The assay buffer is composed of 20 mM Hepes, pH 7.5, 2.5 mM KCl, 2.5 mM MgCl2, 1 mM DTT, 1.6 U RNAse inhibitor (Promega N2515), 0.1 mg/ml BSA (Promega R3961), and 2% glycerol. All compounds were serially diluted (3-fold) in DMSO and diluted further in water such that the final concentration of DMSO in the assay was 2%. HCV RdRp genotype 1b enzyme was used at a final concentration of 28 nM. A polyA template was used at 6 nM, and a biotinylated oligo-dT12 primer was used at 180 nM final concentration. Template was obtained commercially (Amersham 27-4110). Biotinylated primer was prepared by Sigma Genosys. ^3H-UTP was used at 0.6 μCi (0.29 μM total UTP). Reactions were initiated by the addition of enzyme, incubated at 30° C. for 60 min, and stopped by adding 25 μl of 50 mM EDTA containing SPA beads (4 μg/μl, Amersham RPNQ 0007). Plates were read on a Packard Top Count NXT after >1 hr incubation at room temperature.
Modified HCV NS5B RdRp enzyme assay. A modified enzyme assay was performed essentially as described for the standard enzyme assay except for the following: The biotinylated oligo dT12 primer was precaptured on streptavidin-coated SPA beads by mixing primer and beads in assay buffer and incubating at room temperature for one hour. Unbound primer was removed after centrifugation. The primer-bound beads were resuspended in 20 mM Hepes buffer, pH 7.5 and used in the assay at final concentrations of 20 nM primer and 0.67 μg/μl beads. Order of addition in the assay: enzyme (14 nM) was added to diluted compound followed by the addition of a mixture of template (0.2 nM), ^3H-UTP (0.6 μCi, 0.29 μM), and primer-bound beads, to initiate the reaction; concentrations given are final. Reactions were allowed to proceed for 4 hours at 30° C.
The IC50 values for compounds were determined using seven different [I]. […]

[3] = modified method (with preincubation)

T1 sequence (Q9WMX2 2420-2992): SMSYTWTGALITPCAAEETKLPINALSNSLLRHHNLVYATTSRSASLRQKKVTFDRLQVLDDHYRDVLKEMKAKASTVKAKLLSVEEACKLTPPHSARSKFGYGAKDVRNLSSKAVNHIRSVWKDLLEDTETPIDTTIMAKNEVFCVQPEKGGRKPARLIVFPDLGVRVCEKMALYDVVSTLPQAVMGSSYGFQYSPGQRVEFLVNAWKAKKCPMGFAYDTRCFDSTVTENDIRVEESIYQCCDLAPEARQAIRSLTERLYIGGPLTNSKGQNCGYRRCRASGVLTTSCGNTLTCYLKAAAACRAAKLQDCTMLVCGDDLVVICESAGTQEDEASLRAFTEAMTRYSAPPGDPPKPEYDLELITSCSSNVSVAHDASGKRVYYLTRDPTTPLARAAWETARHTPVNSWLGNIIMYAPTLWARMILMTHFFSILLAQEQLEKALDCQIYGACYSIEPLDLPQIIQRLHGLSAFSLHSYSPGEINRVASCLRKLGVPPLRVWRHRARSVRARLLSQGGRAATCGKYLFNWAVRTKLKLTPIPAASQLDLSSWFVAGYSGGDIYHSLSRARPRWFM

Compound | EC50 [1] [µM] | IC50 ([2]; preincubation protocol) [µM] | IC50 [2, 3] [µM]
COc1ccc2c(c1)C=C(C(=O)N(CCO)CCO)Cn1c-2c(C2CCCCC2)c2ccc(C(=O)NS(=O)(=O)N(C)C)cc21 | 0.05 to 1 | < 0.02 | 
COC(=O)/C=C/c1ccc(NC(=O)C2(NC(=O)c3ccc4c(C5CCCCC5)c5n(c4c3)CC(=O)Cc3ccccc3-5)CCCC2)cc1 | 0.01 to 1 |  | > 1
O=C(O)/C=C/c1ccc(NC(=O)C2(NC(=O)c3ccc4c(C5CCCCC5)c5n(c4c3)C[C@@H](O)[C@@H](O)c3ccccc3-5)CCCC2)cc1 | 0.01 to 1 |  | 0.02 to 1
COc1ccc2c(c1)C=C(C(=O)N1CC(C)NC(C)C1)Cn1c-2c(C2CCCCC2)c2ccc(C(=O)NS(=O)(=O)N(C)C)cc21 (stereo not drawn) | 0.05 to 1 | 0.01 to 1 | 
O=C(O)c1ccc2c(C3CCCCC3)c3n(c2c1)C/C(=N/O)Cc1ccccc1-3 | 1 to 10 |  | 0.02 to 1
CN(C)S(=O)(=O)NC(=O)c1ccc2c(c1)N1C(O)c3cc(OCc4ccccc4)ccc3C1C2 (stereo not drawn) | 0.01 to 1 |  | 0.02 to 1
Nc1nc2c(s1)CCCn1c-2c(C2CCCCC2)c2ccc(C(=O)NC3(C(=O)Nc4ccc(/C=C/C(=O)O)cc4)CCCC3)cc21 | 1 to 10 |  | 0.02 to 1
C[C@@H]1CN(C(=O)C2=Cc3cc(F)ccc3-c3c(C4CCCCC4)c4ccc(C(=O)NS(=O)(=O)N(C)C)cc4n3C2)C[C@H](C)N1 | 0.05 to 1 | 0.01 to 1 | 
CCN(C)S(=O)(=O)NC(=O)c1ccc2c(C3CCCCC3)c3n(c2c1)CC(C(=O)N1CCOCC1)=Cc1ccccc1-3 | 0.01 to 1 |  | 0.02 to 1
O=C(NS(=O)(=O)C1CC1)c1ccc2c(C3CCCCC3)c3n(c2c1)CCCc1ncccc1-3 | 0.01 to 1 |  | 0.02 to 1
COC(=O)c1ccc2c(C3CCCCC3)c3n(c2c1)CC(C(=O)N1CCOCC1)=Cc1ccncc1-3 | 1 to 10 |  | > 1
CS(=O)(=O)NC(=O)c1ccc2c(C3CCCCC3)c3n(c2c1)CCCc1ncccc1-3 | 1 to 10 |  | 0.02 to 1
O=C(O)c1ccc2c(C3CCCCC3)c3n(c2c1)CNc1ccccc1-3 | 0.01 to 1 |  | 0.02 to 1
O=C(O)c1ccc2c(C3CCCCC3)c3n(c2c1)CC(O)Cc1ccccc1-3 (stereo not drawn) | 1 to 10 |  | 0.02 to 1
CC(C)(C)S(=O)(=O)NC(=O)c1ccc2c(C3CCCCC3)c3n(c2c1)CC(C(=O)N1CCOCC1)=Cc1ccccc1-3 | 0.01 to 1 |  | 0.02 to 1
CCN(CC)S(=O)(=O)NC(=O)c1ccc2c(C3CCCCC3)c3n(c2c1)CC(C(=O)N1CCOCC1)=Cc1ccccc1-3 | 0.01 to 1 |  | 0.02 to 1
O=C(O)c1ccc2c(C3CCCCC3)c3n(c2c1)CCCCN(CCO)c1ccccc1-3 | 1 to 10 |  | > 1

Compound | EC50 [1] [µM] | IC50 ([2]; preincubation protocol) [µM] | IC50 [2, 3] [µM]
CN(C(=O)c1ccc2c(C3CCCCC3)c3n(c2c1)CCCc1ccccc1-3)C1(C(=O)O)CCCC1 | > 10 |  | 0.02 to 1
COC(=O)c1ccc2c(C3CCCCC3)c3n(c2c1)CC(C#N)=Cc1ccccc1-3 | 1 to 10 |  | > 1
O=C(O)c1ccc2c(C3CCCCC3)c3c4ccccc4ncn3c2c1 | > 10 |  | > 1
COC(=O)/C=C/c1ccc(NC(=O)C2(NC(=O)c3ccc4c(C5CCCCC5)c5n(c4c3)CCCc3sc(C)nc3-5)CCCC2)cc1 | > 10 |  | > 1
CS(=O)(=O)NC(=O)c1ccc2c(C3CCCCC3)c3n(c2c1)CC(C(=O)N1CCOCC1)Cc1ccccc1-3 (stereo not drawn) [drawing 303] | 0.01 to 1 |  | 0.02 to 1
O=C1Cn2c(c(C3CCCCC3)c3ccc(C(=O)NC4(C(=O)Nc5nccs5)CCCC4)cc32)-c2ccccc2N1 | 0.01 to 1 |  | 0.02 to 1
O=C(c1ccc2c(C3CCCCC3)c3n(c2c1)CC(C(=O)N1CCOCC1)Cc1ccccc1-3)N1CCOCC1 (stereo not drawn) | 0.01 to 1 |  | > 1
COc1ccc2c(c1)C=C(C(=O)N1CC[C@@H](O)C1)Cn1c-2c(C2CCCCC2)c2ccc(C(=O)NS(=O)(=O)N(C)C)cc21 | 0.05 to 1 | 0.01 to 1 | 
COc1ccc2c(c1)C=C(C(=O)N1CCOCC1)Cn1c-2c(C2CCCCC2)c2ccc(C(=O)O)cc21 | 0.01 to 1 |  | 0.02 to 1
COc1ccc2c(c1)C=C(C(=O)N1CCOC(CN(C)C)C1)Cn1c-2c(C2CCCCC2)c2ccc(C(=O)NS(=O)(=O)N(C)C)cc21 (stereo not drawn) | 0.05 to 1 | 0.01 to 1 | 
CC(C)N(C(=O)C1=Cc2ccccc2-c2c(C3CCCCC3)c3ccc(C(=O)NS(=O)(=O)N(C)C)cc3n2C1)C(C)C | 0.01 to 1 |  | 0.02 to 1
O=C(O)c1ccc2c(C3CCCCC3)c3n(c2c1)CCCc1ocnc1-3 | > 10 |  | > 1
CS(=O)(=O)NC(=O)c1ccc2c(C3CCCCC3)c3n(c2c1)CC=Cc1ncccc1-3 | > 10 |  | 0.02 to 1
CCOC(=O)c1cc2cc(NC(=O)C3(NC(=O)c4ccc5c(C6CCCCC6)c6n(c5c4)CC(=O)Nc4ccccc4-6)CCCC3)ccc2n1C | 0.01 to 1 |  | 0.02 to 1
COC(=O)c1ccc2c(C3CCCCC3)c3n(c2c1)C(C(=O)N1CCOCC1)CCc1ccccc1-3 (stereo not drawn) | 0.05 to 1 | > 12.5 | 
Cn1cnc(S(=O)(=O)NC(=O)c2ccc3c(C4CCCCC4)c4n(c3c2)CC=Cc2ncccc2-4)c1 | > 10 |  | 0.02 to 1
